Consider 1 molecule from patent US20030039658A1, “MCEF, a novel transcription factor” (priority 2000, published 2003).

This data set is described as follows: Geldanamycin cytotoxicity. The data set is classed as cell-based.

Turning to `COC1=C2C[C@@H](C)C[C@H](OC)[C@H](O)[C@@H](C)/C=C(\C)[C@H](OC(N)=O)[C@@H](OC)/C=C\C=C(/C)C(=O)NC(=CC1=O)C2=O` [Geldanamycin], the cytotoxicity result is given as “primarily the result of GA cytotoxicity”.
